Measured values as given in publication PMC5614966, “Xanthates As Useful Probes for Testing the Active Sites of Cytochromes P450 4A11 and 2E1” (Frontiers in Pharmacology, 2017).
One block for each molecule: values may come before it.

Key:
CYP4A11 = molecular target: T1, CYP4A11 (Homo sapiens, UniProt Q02928); experiment: inhibition of lauric acid omega-hydroxylation by CYP4A11 supersomes, HPLC-fluorescence, Lineweaver-Burk; type: biochemical
T1 sequence (Q02928 5-519): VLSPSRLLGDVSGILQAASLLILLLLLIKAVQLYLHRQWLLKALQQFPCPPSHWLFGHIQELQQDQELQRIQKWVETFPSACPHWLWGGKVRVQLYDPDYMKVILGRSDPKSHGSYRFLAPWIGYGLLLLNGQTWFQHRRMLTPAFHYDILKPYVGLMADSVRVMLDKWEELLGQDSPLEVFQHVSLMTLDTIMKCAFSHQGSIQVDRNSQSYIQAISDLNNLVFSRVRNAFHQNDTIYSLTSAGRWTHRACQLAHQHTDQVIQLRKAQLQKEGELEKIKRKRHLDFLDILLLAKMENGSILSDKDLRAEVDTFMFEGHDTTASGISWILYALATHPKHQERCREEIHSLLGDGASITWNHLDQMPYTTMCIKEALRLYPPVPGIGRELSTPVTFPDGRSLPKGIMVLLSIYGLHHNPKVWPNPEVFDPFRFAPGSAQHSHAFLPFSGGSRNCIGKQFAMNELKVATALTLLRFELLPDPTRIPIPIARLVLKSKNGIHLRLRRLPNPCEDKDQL

CYP2E1 = CYP2E1 (Oryctolagus cuniculus, UniProt P08682); experiment: time- and concentration-dependent (mechanism-based) inactivation of 7-EFC O-deethylation, KI with kinact […] min^-1; type: biochemical; conditions: read-out: KI_inact
[1] = substrate: CCCCCCCCCCCC(=O)O; experiment: Michaelis-Menten kinetics of omega-hydroxylation by CYP4A11 supersomes (Km); type: biochemical, Homo sapiens; conditions: heme; NADPH

Sequence of CYP2E1 (P08682 whole entry): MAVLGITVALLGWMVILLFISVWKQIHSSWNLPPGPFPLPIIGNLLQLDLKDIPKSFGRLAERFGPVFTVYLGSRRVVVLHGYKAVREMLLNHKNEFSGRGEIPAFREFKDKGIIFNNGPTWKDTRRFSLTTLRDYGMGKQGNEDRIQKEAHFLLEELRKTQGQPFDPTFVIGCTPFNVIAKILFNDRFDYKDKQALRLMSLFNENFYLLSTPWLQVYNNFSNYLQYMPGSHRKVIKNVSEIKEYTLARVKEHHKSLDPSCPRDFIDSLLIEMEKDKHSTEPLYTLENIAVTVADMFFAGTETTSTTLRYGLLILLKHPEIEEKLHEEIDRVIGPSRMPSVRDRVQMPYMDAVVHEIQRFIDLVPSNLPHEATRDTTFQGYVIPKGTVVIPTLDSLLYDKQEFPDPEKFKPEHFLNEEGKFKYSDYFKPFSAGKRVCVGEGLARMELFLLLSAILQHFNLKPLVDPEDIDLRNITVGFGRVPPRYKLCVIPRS

Ki (CYP4A11): 9 ± 1 µM
KI (inactivation) (CYP2E1): 312 µM
Molecule: CCCCCCCCCCCCOC(=S)S [C12, potassium O-dodecyl carbonodithioate]

B1: CYP4A11 (Homo sapiens) (protein)
chain: T1 sequence (Q02928 5-519)
Km [1]: 11.8 µM
